The molecules below were run against T1, histamine H3 receptors (Homo sapiens, UniProt Q9Y5N1) (assay: Histamine H3 functional antagonist assay ([35S]-GTPγS SPA on membranes from H3 cells)). Details: hydrochloride salts tested; H3 functional antagonist assay using membrane prepared from cultured H3 cells; averages of a number of experiments; read-out: functional pKi (fpKi) (converted).
T1 construct: expressed in transfected cells; host or cells: CHO K1 cells carrying pSwitch, transfected with pGeneH3, induced with mifepristone; clone 3H3; membrane preparation
T1 sequence (Q9Y5N1 whole entry): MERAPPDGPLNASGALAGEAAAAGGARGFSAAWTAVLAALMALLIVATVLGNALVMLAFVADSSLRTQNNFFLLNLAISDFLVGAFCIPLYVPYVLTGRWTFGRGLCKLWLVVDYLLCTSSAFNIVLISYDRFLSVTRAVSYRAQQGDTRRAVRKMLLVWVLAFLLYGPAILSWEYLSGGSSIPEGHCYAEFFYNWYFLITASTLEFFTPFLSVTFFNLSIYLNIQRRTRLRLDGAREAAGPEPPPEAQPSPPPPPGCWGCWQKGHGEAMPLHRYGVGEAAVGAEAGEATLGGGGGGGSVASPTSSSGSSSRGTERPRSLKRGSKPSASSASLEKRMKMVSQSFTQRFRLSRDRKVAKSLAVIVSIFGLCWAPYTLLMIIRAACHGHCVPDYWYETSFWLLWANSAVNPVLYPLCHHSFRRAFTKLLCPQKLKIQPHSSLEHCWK
Format: biochemical
Text: A membrane preparation containing histamine H3 receptors may be prepared in accordance with the following procedures:
(i) Generation of Histamine H3 Cell Line
DNA encoding the human histamine H3 gene (Huvar, A. et al. (1999) Mol. Pharmacol. 55(6), 1101-1107) was cloned into a holding vector, pCDNA3.1 TOPO (InVitrogen) and its cDNA was isolated from this vector by restriction digestion of plasmid DNA with the enzymes BamHI and Not-1 and ligated into the inducible expression vector pGene (InVitrogen) digested with the same enzymes. The GeneSwitch™ system (a system where in transgene expression is switched off in the absence of an inducer and switched on in the presence of an inducer) was performed as described in U.S. Pat. Nos. 5,364,791; 5,874,534; and 5,935,934. Ligated DNA was transformed into competent DH5α E. coli host bacterial cells and plated onto Luria Broth (LB) agar containing Zeocin™ (an antibiotic which allows the selection of cells expressing the sh ble gene which is present on pGene and pSwitch) at 50 μg ml^−1. Colonies containing the re-ligated plasmid were identified by restriction analysis. DNA for transfection into mammalian cells was prepared from 250 ml cultures of the host bacterium containing the pGeneH3 plasmid and isolated using a DNA preparation kit (Qiagen Midi-Prep) as per manufacturers guidelines (Qiagen).
CHO K1 cells previously transfected with the pSwitch regulatory plasmid (InVitrogen) were seeded at 2×10e6 cells per T75 flask in Complete Medium, containing Hams F12 (GIBCOBRL, Life Technologies) medium supplemented with 10% v/v dialysed foetal bovine serum, L-glutamine, and hygromycin (100 μg ml^−1), 24 hours prior to use. Plasmid DNA was transfected into the cells using Lipofectamine plus according to the manufacturers guidelines (InVitrogen). 48 hours post transfection cells were placed into complete medium supplemented with 500 μg ml^−1 Zeocin™.
10-14 days post selection 10 nM Mifepristone (InVitrogen), was added to the culture medium to induce the expression of the receptor. 18 hours post induction cells were detached from the flask using ethylenediamine tetra-acetic acid (EDTA; 1:5000; InVitrogen), following several washes with phosphate buffered saline pH 7.4 and resuspended in Sorting Medium containing Minimum Essential Medium (MEM), without phenol red, and supplemented with Earles salts and 3% Foetal Clone II (Hyclone). Approximately 1×10e7 cells were examined for receptor expression by staining with a rabbit polyclonal antibody, 4a, raised against the N-terminal domain of the histamine H3 receptor, incubated on ice for 60 minutes, followed by two washes in sorting medium. Receptor bound antibody was detected by incubation of the cells for 60 minutes on ice with a goat anti rabbit antibody, conjugated with Alexa 488 fluorescence marker (Molecular Probes). Following two further washes with Sorting Medium, cells were filtered through a 50 μm Filcon™ (BD Biosciences) and then analysed on a FACS Vantage SE Flow Cytometer fitted with an Automatic Cell Deposition Unit. Control cells were non-induced cells treated in a similar manner. Positively stained cells were sorted as single cells into 96-well plates, containing Complete Medium containing 500 μg ml^−1 Zeocin™ and allowed to expand before reanalysis for receptor expression via antibody and ligand binding studies. One clone, 3H3, was selected for membrane preparation.
(ii) Membrane Preparation from Cultured Cells
All steps of the protocol are carried out at 4° C. and with pre-cooled reagents. The cell pellet is resuspended in 10 volumes of homogenisation buffer (50 mM N-2-hydroxyethylpiperazine-N′-2-ethanesulfonic acid (HEPES), 1 mM ethylenediamine tetra-acetic acid (EDTA), pH 7.4 with KOH, supplemented with 10e-6M leupeptin (acetyl-leucyl-leucyl-arginal; Sigma L2884), 25 μg/ml bacitracin (Sigma B0125), 1 mM phenylmethylsulfonyl fluoride (PMSF) and 2×10e-6M pepstain A (Sigma)). […]

Compound | Ki [nM]
Cc1cn(C)nc1C(=O)N1CCC(c2nc3c(s2)CCN(C2CCC2)CC3)CC1 [Example E85, 6-Cyclobutyl-2-{1-[(1,4-dimethyl-1H-pyrazol-3-yl)carbonyl]-4-piperidinyl}-5,6,7,8-tetrahydro-4H-[1,3]thiazolo[4,5-d]azepine] | < 1.26
Cc1cc(C(=O)N2CCC(c3nc4c(s3)CCN(C3CCC3)CC4)CC2)nn1C [Example E88, 6-Cyclobutyl-2-{1-[(1,5-dimethyl-1H-pyrazol-3-yl)carbonyl]-4-piperidinyl}-5,6,7,8-tetrahydro-4H-[1,3]thiazolo[4,5-d]azepine] | < 1.26
O=C(c1ccccn1)N1CCC(c2nc3c(s2)CCN(C2CCC2)CC3)CC1 [Example E90, 6-Cyclobutyl-2-[1-(2-pyridinylcarbonyl)-4-piperidinyl]-5,6,7,8-tetrahydro-4H-[1,3]thiazolo[4,5-d]azepine] | < 1.26
Cc1cncc(C(=O)N2CCC(c3nc4c(s3)CCN(C3CCC3)CC4)CC2)n1 [Example E92, 6-Cyclobutyl-2-{1-[(6-methyl-2-pyrazinyl)carbonyl]-4-piperidinyl}-5,6,7,8-tetrahydro-4H-[1,3]thiazolo[4,5-d]azepine] | < 1.26
Cc1cc(C(=O)N2CCC(c3nc4c(s3)CCN(C3CCC3)CC4)CC2)ccn1 [Example E93, 6-Cyclobutyl-2-{1-[(2-methyl-4-pyridinyl)carbonyl]-4-piperidinyl}-5,6,7,8-tetrahydro-4H-[1,3]thiazolo[4,5-d]azepine] | < 1.26
O=S1(=O)CCCN1c1ccc(-c2nc3c(s2)CCN(C2CCC2)CC3)cc1 [Example E99, 6-Cyclobutyl-2-[4-(1,1-dioxido-2-isothiazolidinyl)phenyl]-5,6,7,8-tetrahydro-4H-[1,3]thiazolo[4,5-d]azepine] | < 1.26
N#Cc1ccc(C(=O)N2CCC(c3nc4c(s3)CCN(C3CCC3)CC4)C2)cc1 (stereo not shown) [Example E105, 4-{[3-(6-Cyclobutyl-5,6,7,8-tetrahydro-4H-[1,3]thiazolo[4,5-d]azepin-2-yl)-1-pyrrolidinyl]carbonyl}benzonitrile] | < 1.26
c1cc(N2CCCC2)ncc1-c1nc2c(s1)CCN(C1CCC1)CC2 [Example E107, 6-Cyclobutyl-2-[6-(1-pyrrolidinyl)-3-pyridinyl]-5,6,7,8-tetrahydro-4H-[1,3]thiazolo[4,5-d]azepine] | > 7.94
CN(C)c1ccc(-c2nc3c(s2)CCN(C2CCC2)CC3)cc1 [Example E116, 4-(6-Cyclobutyl-5,6,7,8-tetrahydro-4H-[1,3]thiazolo[4,5-d]azepin-2-yl)-N,N-dimethylaniline] | < 1.26

Further lines, results first:

Ki [nM] | Compound
< 1.26 | Cc1cccnc1C(=O)N1CCC(c2nc3c(s2)CCN(C2CCC2)CC3)CC1 [Example E83, 6-Cyclobutyl-2-{1-[(3-methyl-2-pyridinyl)carbonyl]-4-piperidinyl}-5,6,7,8-tetrahydro-4H-[1,3]thiazolo[4,5-d]azepine]
< 1.26 | Cc1nccc(C(=O)N2CCC(c3nc4c(s3)CCN(C3CCC3)CC4)CC2)n1 [Example E95, 6-Cyclobutyl-2-{1-[(2-methyl-4-pyrimidinyl)carbonyl]-4-piperidinyl}-5,6,7,8-tetrahydro-4H-[1,3]thiazolo[4,5-d]azepine]
< 1.26 | NC(=O)c1ccc(-c2nc3c(s2)CCN(C2CCC2)CC3)cn1 [Example E100, 5-(6-Cyclobutyl-5,6,7,8-tetrahydro-4H-[1,3]thiazolo[4,5-d]azepin-2-yl)-2-pyridinecarboxamide]
< 1.26 | O=C1NCCN1c1ccc(-c2nc3c(s2)CCN(C2CCC2)CC3)cn1 [Example E103, 1-[5-(6-Cyclobutyl-5,6,7,8-tetrahydro-4H-[1,3]thiazolo[4,5-d]azepin-2-yl)-2-pyridinyl]-2-imidazolidinone]
< 31.6 | Cc1cccc(C(=O)N2CCC(c3nc4c(s3)CCN(C3CCC3)CC4)C2)n1 (stereo not shown) [Example E106, 6-Cyclobutyl-2-{1-[(6-methyl-2-pyridinyl)carbonyl]-3-pyrrolidinyl}-5,6,7,8-tetrahydro-4H-[1,3]thiazolo[4,5-d]azepine]
< 1.26 | c1cc(N2CCOCC2)ncc1-c1nc2c(s1)CCN(C1CCC1)CC2 [Example E108, 6-Cyclobutyl-2-[6-(4-morpholinyl)-3-pyridinyl]-5,6,7,8-tetrahydro-4H-[1,3]thiazolo[4,5-d]azepine]
< 31.6 | N#Cc1cccc(-c2nc3c(s2)CCN(C2CCC2)CC3)c1 [Example E112, 3-(6-Cyclobutyl-5,6,7,8-tetrahydro-4H-[1,3]thiazolo[4,5-d]azepin-2-yl)benzonitrile]

From patent publication US20080161289A1, “Fused Thiazole Derivatives Having Affinity for the Histamine H3 Receptor” (Glaxo Group Limited, priority 2005, published 2008)
